{"source": "patent US11753603B2", "about": "“Acidic cleaning and disinfecting compositions comprising a citric/methansulfonic acid mixture” (THE CLOROX COMPANY, priority 2020, dated 2023)", "system": "bacterial population", "test": "Suspension test (kill in 10 minutes)", "details": "0.1% citric acid alone", "experimental": "Formula A of Table I includes addition of LAE (0.1%) plus APG (1.0%) and enables the use of citric acid levels as low at 0.1% with complete kill in suspension test in 10 minutes.", "data": [{"molecule": "O=C(O)CC(O)(CC(=O)O)C(=O)O", "note": "[citric acid]", "values": [{"measurement": "kill in suspension test", "result": "little or no kill"}]}]}
